Measurements taken from publication PMC8315004, “Discovery of Small-Molecule Inhibitors of SARS-CoV-2 Proteins Using a Computational and Experimental Pipeline” (Frontiers in Molecular Biosciences, 2021).
Structures can show the parent of a compound that is named as a salt. Where two headings read alike, the source gives them in different places.

Legend:
in vitro = settings: African green monkey
SARS-CoV-2 M^pro [1] = target: T1, SARS-CoV-2 M^pro (Severe acute respiratory syndrome coronavirus 2, UniProt P0DTD1); test: biochemical; design: inhibition: dose or concentration left out as unconfirmed; settings: for inhibition / Normalized Percent FRET inhibition: initial screen, Table S4; for inhibition / inhibition at 100 µM: read-out: Normalized Percent FRET inhibition; for Normalized Percent FRET inhibition: 100 μM of drug
[2] = target: ACE2-RBD binding (SARS-CoV-2 RBD / human ACE2-Fc) (Severe acute respiratory syndrome coronavirus 2, UniProt P0DTC2); test: biochemical; settings: for RMAX of ACE2-RBD binding: RBD pre-treated with 50 μM compound, DMSO only 0.3044; for ACE2-RBD binding versus inhibitor concentration (in words): RBD pre-treated with increasing concentrations; for inhibition at 50 µM: pre-treatment with 50 μM compound, from Rmax with vs without compound
[3] = tested on: SARS-CoV-2 expressing the mNeon reporter gene; test: microbe, parasite or virus in culture; type: cell-based; settings: read-out: IC50 against SARS-CoV-2
Mpro = settings: cited from earlier work
SARS-CoV-2 M^pro [4] = target: T1, SARS-CoV-2 M^pro; test: Mpro substrate cleavage by gel electrophoresis (SDS-PAGE) and densitometry; type: biochemical; settings: normalized gel densitometry data (red values of Figure 2D); read-out: IC50 against Mpro, gel electrophoresis and densitometry
VSV-SARS2 = test: microbe, parasite or virus in culture; type: cell-based; settings: for inhibition at 10 µM: read-out: inhibition of VSV-SARS2 infection (efficacy); for IC50: read-out: IC50 against VSV-SARS2
[5] = Severe acute respiratory syndrome coronavirus 2, Vero, 18 h
[6] = Vesicular stomatitis virus, Vero

SMILES: COc1ccc(-c2ccc3cc(C(=O)O)ccc3c2)cc1C12CC3CC(CC(C3)C1)C2 [Adapalene]
- CC50 (in vitro): 60.7 µM
- inhibition (SARS-CoV-2 M^pro [1]): 0.236%
- RMAX of ACE2-RBD binding [2]: 0.2322
- ACE2-RBD binding versus inhibitor concentration (in words) [2]: concentration-dependent decrease
- inhibition at 50 µM [2]: 23.8%
- IC50 [3, 5]: ~10 µM
- IC50 [3]: 9.6 µM

SMILES: O=c1c2ccccc2[se]n1-c1ccccc1 [Ebselen]
- Mpro inhibitor potency (literature, in words) (Mpro): low micromolar
- inhibition at 100 µM (SARS-CoV-2 M^pro [1]): 117%

SMILES: Cc1cc2nc3c(=O)[nH]c(=O)nc-3n(C[C@H](O)[C@H](O)[C@H](O)COP(=O)(O)OP(=O)(O)OC[C@H]3O[C@@H](n4cnc5c(N)ncnc54)[C@H](O)[C@@H]3O)c2cc1C [Flavin Adenine Dinucleotide Disodium]
- inhibition (SARS-CoV-2 M^pro [1]): 149%
- IC50 (SARS-CoV-2 M^pro [1]; normalized FRET data, technical duplicates, end-point about 4 h, read-out: IC50 against Mpro, FRET values): 42.5 µM
- inhibition of the activity of Mpro in secondary screen (SARS-CoV-2 M^pro [1]; re-screen at 100 μM): completely inhibit
- IC50 (SARS-CoV-2 M^pro [4]): > 100 µM

SMILES: C#C[C@]1(O)CC[C@H]2[C@@H]3CCC4=CC(=O)CCC4=C3C=C[C@@]21CC [Gestrinone]
- RMAX of ACE2-RBD binding [2]: 0.2366
- ACE2-RBD binding versus inhibitor concentration (in words) [2]: concentration-dependent decrease
- inhibition at 50 µM [2]: 22%

SMILES: C#Cc1cccc(Nc2ncnc3cc4c(cc23)OCCOCCOCCO4)c1 [Icotinib]
- inhibition (SARS-CoV-2 M^pro [1]): -0.628%
- RMAX of ACE2-RBD binding [2]: 0.2406
- ACE2-RBD binding versus inhibitor concentration (in words) [2]: concentration-dependent decrease
- inhibition at 50 µM [2]: 21%

SMILES: Cc1ccc(NC(=O)c2ccc(CN3CCN(C)CC3)cc2)cc1Nc1nccc(-c2cccnc2)n1 [Imatinib]
- inhibition at 10 µM (VSV-SARS2; [6]): ≥ 50%

SMILES: CS(=O)(=O)CCNCc1ccc(-c2ccc3ncnc(Nc4ccc(OCc5cccc(F)c5)c(Cl)c4)c3c2)o1 [Lapatinib Ditosylate]
- inhibition (SARS-CoV-2 M^pro [1]): -1.57%

SMILES: CS(=O)(=O)CCNCc1ccc(-c2ccc3ncnc(Nc4ccc(OCc5cccc(F)c5)c(Cl)c4)c3c2)o1 [Lapatinib]
- IC50 (VSV-SARS2; [6]): < 10 µM
- inhibition at 10 µM (VSV-SARS2; [6]): ≥ 50%
- IC50 (VSV-SARS2): 7.1 µM
- CC50 (in vitro): 69.6 µM
- RMAX of ACE2-RBD binding [2]: 0.2344
- ACE2-RBD binding versus inhibitor concentration (in words) [2]: concentration-dependent decrease
- inhibition at 50 µM [2]: 23%
- IC50 [3, 5]: 31.1 µM

SMILES: CC#CCn1c(N2CCC[C@@H](N)C2)nc2c1c(=O)n(Cc1nc(C)c3ccccc3n1)c(=O)n2C [Linagliptin]
- inhibition (SARS-CoV-2 M^pro [1]): 8.28%

SMILES: COc1ccc(CN2CCN(C(c3ccc(F)cc3)c3ccc(F)cc3)CC2)c(OC)c1OC.Cl.Cl [Lomerizine hydrochloride]
- Normalized Percent FRET inhibition (SARS-CoV-2 M^pro [1]): -0.2765%

SMILES: Cc1cccc(C)c1OCC(=O)N[C@@H](Cc1ccccc1)[C@@H](O)C[C@H](Cc1ccccc1)NC(=O)[C@H](C(C)C)N1CCCNC1=O [Lopinavir]
- inhibition (SARS-CoV-2 M^pro [1]): 18.2%

SMILES: OC[C@H]1O[C@H](O[C@H]2[C@H](O)[C@@H](O)[C@@H](O[C@H]3[C@H](O)[C@@H](O)[C@@H](O[C@H]4[C@H](O)[C@@H](O)C(O)O[C@@H]4CO)O[C@@H]3CO)O[C@@H]2CO)[C@H](O)[C@@H](O)[C@@H]1O (stereo partly drawn) [MALTOTETRAOSE]
- Normalized Percent FRET inhibition (SARS-CoV-2 M^pro [1]): -0.9055%

SMILES: C#C[C@]1(O)CC[C@H]2[C@@H]3CCc4cc(OC)ccc4[C@H]3CC[C@@]21C [Mestranol]
- inhibition (SARS-CoV-2 M^pro [1]): -1.1%

SMILES: CN(c1nccc(=O)[nH]1)C1CCN(c2nc3ccccc3n2Cc2ccc(F)cc2)CC1 [Mizolastine]
- inhibition (SARS-CoV-2 M^pro [1]): -0.317%

SMILES: Cc1c(O)cccc1C(=O)N[C@@H](CSc1ccccc1)[C@H](O)CN1C[C@H]2CCCC[C@H]2C[C@H]1C(=O)NC(C)(C)C [Nelfinavir Mesylate]
- inhibition (SARS-CoV-2 M^pro [1]): 30.8%

SMILES: CO[C@@H]1[C@@H](OC(N)=O)[C@@H](O)[C@H](Oc2ccc3c(O)c(NC(=O)c4ccc(O)c(CC=C(C)C)c4)c(=O)oc3c2C)OC1(C)C [Novobiocin Sodium]
- inhibition (SARS-CoV-2 M^pro [1]): -0.228%

SMILES: CCCc1nc(C(C)(C)O)c(C(=O)OCc2oc(=O)oc2C)n1Cc1ccc(-c2ccccc2-c2nnn[nH]2)cc1 [Olmesartan Medoxomil]
- inhibition (SARS-CoV-2 M^pro [1]): 2.83%

SMILES: C=CC(=O)Nc1cccc(Oc2nc(Nc3ccc(N4CCN(C)CC4)cc3)nc3ccsc23)c1 [Olmutinib]
- inhibition (SARS-CoV-2 M^pro [1]): -0.795%

SMILES: C[C@@H]1O[C@@H](O[C@H]2C[C@@H](O)[C@]3(CO)[C@H]4[C@H](O)C[C@]5(C)[C@@H](C6=CC(=O)OC6)CC[C@]5(O)[C@@H]4CC[C@]3(O)C2)[C@H](O)[C@H](O)[C@H]1O [Ouabain octahydrate]
- inhibition (SARS-CoV-2 M^pro [1]): -0.948%

SMILES: CC(=O)O[C@H]1C[C@@H]2CC[C@@H]3[C@H](CC[C@@]4(C)[C@H]3C[C@H]([N+]3(C)CCCCC3)[C@@H]4OC(C)=O)[C@@]2(C)C[C@@H]1[N+]1(C)CCCCC1 [Pancuronium bromide]
- inhibition at 100 µM (SARS-CoV-2 M^pro [1]): 10%

SMILES: Cc1cnc(C(=O)N[C@H]2CCCCC/C=C\[C@@H]3C[C@@]3(C(=O)NS(=O)(=O)C3CC3)NC(=O)[C@@H]3C[C@@H](Oc4nc5ccccc5c5ccccc45)CN3C2=O)cn1 [Paritaprevir]
- inhibition (SARS-CoV-2 M^pro [1]): 0.758%

SMILES: Cc1ccc(Nc2nccc(N(C)c3ccc4c(C)n(C)nc4c3)n2)cc1S(N)(=O)=O [Pazopanib]
- inhibition (SARS-CoV-2 M^pro [1]): -0.955%

SMILES: CO[C@H]1C[C@H](O[C@H]2CC[C@]3(C)[C@H]4CC[C@]5(C)[C@@H](C6=CC(=O)OC6)CC[C@]5(O)[C@@H]4CC[C@]3(O)C2)O[C@H](C)[C@H]1O[C@@H]1O[C@H](CO)[C@@H](O)[C@H](O)[C@H]1O [Periplocin]
- Normalized Percent FRET inhibition (SARS-CoV-2 M^pro [1]): -1.536%
